Measured values: patent US20050244819A1, “Assay system for screening protease inhibitors” (priority 2004, published 2005)

Key:
D30N HIV strain = conditions: concentration inhibiting 90% of mammalian cell death induced by HIV infection; Patick et al.; read-out: EC90 (μM) from standard antiviral assay with: D30N HIV strain; cited from earlier work
Wild-type HIV = conditions: concentration inhibiting 90% of mammalian cell death induced by HIV infection; Patick et al.; read-out: EC90 (μM) from standard antiviral assay with: Wild-type HIV; cited from earlier work
D30N HIV protease = target: T1, D30N HIV protease (Human immunodeficiency virus type 1 group M subtype B, UniProt P12497, D518N); assay: cell-based; design: species or system HIV-1
T1 construct: used to replace the wild-type HIV protease domain in the two-cistron expression construct; Met-Gly (my reading of primer TF-F) + native transframe region (56 aa directly upstream of the protease in Gag-Pol) (N); Lys-Glu-Glu (my translation of primer PR-R: Shine-Dalgarno in frame before the stop codon) (C); expressed in transfected cells; host or cells: E. coli bearing plasmid pTF-PR^D30N
Procedure: (§1) Cell-Based β-galactosidase Activity Assay. Cell-based β-galactosidase activity assays were performed basically as described in Example 4. E. coli cells bearing each of the expression plasmids were grown as described, except that after incubation at 37° C. for 2 h to an OD630 of 0.6, the cells were transferred in triplicate sets to the wells of 96-well microplates. The cells were subjected to simultaneous induction for recombinant protein expression as well as drug treatment with HIV protease inhibitors at the indicated concentrations in 2% DMSO. For the screening of the compound library generated by the amide-forming reaction (see Example 5), DMF was used instead of DMSO. […] After the OD630 of the cells was determined by using an Ultramark microplate imaging system (Bio-Rad, Hercules, Calif.), ONPG was added at a final concentration of 200 μM to start the enzymatic reactions at 37° C. Changes in the OD415, indicating the production of ortho-nitrophenol, were continuously monitored with the Ultramark microplate imaging system. […] The β-galactosidase activity was determined as the number of micromoles of ortho-nitrophenol produced per minute at 37° C. […]

wild-type HIV protease = wild-type HIV protease (Human immunodeficiency virus type 1 group M subtype B, UniProt P12497); assay: cell-based
Procedure: (§2) Stock solutions of the FDA-approved HIV protease inhibitors were prepared by solubilizing the drugs in 100% dimethyl sulfoxide (DMSO) at 100 mM. A single colony of the cells bearing the respective plasmid, namely pTF-PR^WT or pTF-PR^mutant, was inoculated into 2 ml of Luria-Bertani (LB) medium with 100 μg of ampicillin/ml and grown overnight at 37° C. The culture was diluted 100-fold with fresh Luria-Bertani medium containing 100 μg of ampicillin/ml and incubated at 37° C. for 2 h until the optical density at 630 nm (OD630) of the cells reached 0.6. The cells were then induced for protein expression with 0.2% arabinose and simultaneously treated with either HIV protease inhibitors dissolved in 2% DMSO at the indicated concentrations or 2% DMSO alone as the negative control. After incubation for an additional 3 h at 30° C., the cells were collected for Western blot analysis of proteins.
Cell-Based β-galactosidase Activity Assay. Cell-based β-galactosidase activity assays were performed basically as described in Example 4. E. coli cells bearing each of the expression plasmids were grown as described, except that after incubation at 37° C. for 2 h to an OD630 of 0.6, the cells were transferred in triplicate sets to the wells of 96-well microplates. The cells were subjected to simultaneous induction for recombinant protein expression as well as drug treatment with HIV protease inhibitors at the indicated concentrations in 2% DMSO. For the screening of the compound library generated by the amide-forming reaction (see Example 5), DMF was used instead of DMSO. After incubation for an additional 3 h at 30° C., the cells were made permeable for the entry of the β-galactosidase substrate, (ortho-nitrophenyl-β-D-galactopyranoside (ONPG)), by diluting the cells in assay buffer (10 mM NaP, pH 7.3, 10 mM NaCl, 1 mM MgSO4, 5 mM β-mercaptoethanol) that contained 50 μg of polymyxin B sulfate/ml and 2%Triton X-100 (Schupp et al., BioTechniques 19:18-20 (1995)). The cells were then incubated for 5 min at room temperature in 96-well microplates. After the OD630 of the cells was determined by using an Ultramark microplate imaging system (Bio-Rad, Hercules, Calif.), ONPG was added at a final concentration of 200 μM to start the enzymatic reactions at 37° C. Changes in the OD415, indicating the production of ortho-nitrophenol, were continuously monitored with the Ultramark microplate imaging system. The linear portion of the progression curve was used to determine the initial velocity with MATLAB (The MathWorks Inc., Natick, Mass.). The difference in OD415 (ΔA) was converted to the increase in product concentration (ΔC) by using the equation ΔA=ε(ΔC)(L), where L is the light path of 0.4 cm and the extinction coefficient (ε) of ortho-nitrophenol was 3,500 M^−1 cm^−1 under the assay conditions. The β-galactosidase activity was determined as the number of micromoles of ortho-nitrophenol produced per minute at 37° C. The β-galactosidase activity was then normalized against the amount of total cellular proteins, which was estimated by assuming that an OD630 unit corresponds to 1.4×10^9 cells and that every 10^9 cells yield approximately 150 μg of proteins (Pardee et al., J. Mol. Biol. 1:165-68 (1959)).
ββ-galactosidase activity assays were performed as described in Example 8. After drug treatment for 3 h, the cells were processed for detection of β-galactosidase activity of whole cells in 96-well microplates as described. Cells coexpressing TF-PR^WT and β-GalPR were treated with HIV protease inhibitors at the concentrations between 0 and 400 μM. β-galactosidase activities (micromoles per minute per milligram of total protein) in the treated E. coli cells were determined.
The β-galactosidase activity detected in E. coli coexpressing TF-PR^WT and β-Gal^PR in the absence of HIV protease inhibitors was referred to as 0% inhibition.

[1] = target: T2, HIV protease precursor TF-PR^WT (Human immunodeficiency virus type 1 group M subtype B, UniProt P12497, L434F); assay: cell-based; design: species or system HIV-1
T2 construct: Met-Gly (my reading of primer TF-F) + native transframe region (TFP 8 aa + p6pol 48 aa = 56 aa directly upstream of the protease in Gag-Pol); removed by autoprocessing (N, cleaved yes); expressed in transfected cells; host or cells: E. coli DH5α bearing plasmid pTF-PR^WT (pBAD, arabinose-induced)
Procedure: as §2

I84V HIV protease = target: T3, I84V HIV protease (Human immunodeficiency virus type 1 group M subtype B, UniProt P12497, I572V); assay: E. coli-based assay system: β-galactosidase activity, cells co-expressing TF-PR^I84V and β-Gal^PR; assay type: cell-based, HIV-1
T3 construct: used to replace the wild-type HIV protease domain in the two-cistron system to construct the plasmid pTF-PR^I84V; Met-Gly (my reading of primer TF-F) + native transframe region (56 aa directly upstream of the protease in Gag-Pol) (N); Lys-Glu-Glu (my translation of primer PR-R: Shine-Dalgarno in frame before the stop codon) (C); expressed in transfected cells; host or cells: E. coli bearing plasmid pTF-PR^I84V
Procedure: as §1

| Compound | EC90 (D30N HIV strain) [µM] | EC90 (Wild-type HIV) [µM] | IC50 (D30N HIV protease) [nM] | IC50 (wild-type HIV protease) [nM] | IC50 [1] [nM] | further results |
| --- | --- | --- | --- | --- | --- | --- |
| CC(C)c1nc(CN(C)C(=O)N[C@H](C(=O)N[C@@H](Cc2ccccc2)C[C@H](O)[C@H](Cc2ccccc2)NC(=O)OCc2cncs2)C(C)C)cs1 [RTV, ritonavir] | 0.01 | 0.05 | – | – | – | – |
| CC(C)CN(C[C@@H](O)[C@H](Cc1ccccc1)NC(=O)O[C@H]1CCOC1)S(=O)(=O)c1ccc(N)cc1 [APV, amprenavir] | – | – | 35900 ± 17700 | 53400 ± 17400 | 1600 to 8000 | IC50 (I84V HIV protease): 280000 ± 39000 nM |
| CC(C)(C)NC(=O)[C@@H]1C[C@@H]2CCCC[C@@H]2CN1C[C@@H](O)[C@H](Cc1ccccc1)NC(=O)[C@H](CC(N)=O)NC(=O)c1ccc2ccccc2n1 [SQV, saquinavir] | 0.01 | 0.03 | – | – | – | – |
| pepstatin A | – | – | – | – | – | inhibition of β-galactosidase activity (so in the source) (wild-type HIV protease; E. coli cells coexpressing TF-PR^WT and β-Gal^PR): did not inhibit; cell permeability (wild-type HIV protease; E. coli cells, inferred from lack of inhibition): low cell permeability; inhibitory effects in the assay procedures described herein (wild-type HIV protease; up to 5 mM): failed to exert any inhibitory effects |
| CC(C)(C)NC(=O)[C@@H]1CN(Cc2cccnc2)CCN1C[C@@H](O)C[C@@H](Cc1ccccc1)C(=O)N[C@H]1c2ccccc2C[C@H]1O [IDV, indinavir] | 0.01 | 0.06 | – | – | – | – |
| Cc1c(O)cccc1C(=O)N[C@@H](CSc1ccccc1)[C@H](O)CN1C[C@H]2CCCC[C@H]2C[C@H]1C(=O)NC(C)(C)C [NFV, nelfinavir] | 0.18 | 0.03 | > 400000 | 48400 ± 4800 | 1600 to 8000 | inhibition at 400 µM (wild-type HIV protease; read-out: % inhibition against the wild-type HIV protease): 75% |
